Test results from US20070026065A1, “Solid, modified-release pharmaceutical dosage forms which can be administered orally” (Bayer HealthCare AG, priority 2004, published 2007).
In brackets after ≈: the same amount, converted by molar mass.

Columns and labels:
[1] = Plasma half-life; assay type: in vivo
Description: (§1) Accordingly, for the desired once a day administration, specific pharmaceutical formulations with modified release of the active ingredient (I), taking account of its physicochemical and biological properties, are required.

[2] = Solubility in water; assay type: physicochemical; conditions: 25° C.
Description: as §1

SMILES: O=C(NC[C@H]1CN(c2ccc(N3CCOCC3=O)cc2)C(=O)O1)c1ccc(Cl)s1 [active ingredient (I), 5-Chloro-N-({(5S)-2-oxo-3-[4-(3-oxo-4-morpholinyl)phenyl]-1,3-oxazolidin-5-yl}methyl)-2-thiophenecarboxamide]
- half-life [1]: ~7 h
- solubility [2]: ~7 µg/mL (≈ 16.1 µM)
